Measured values taken from patent US11932673B2, “Sodium channel inhibitors” (priority 2017, dated 2024).
Several values for one entry are separate records, joined by “and”; a condition that tells them apart may be missing. Equal entries are not always repeated.

Assays:
trypsin = assay: Phage TRF binding assay of KnotBody phage on immobilised biotinylated trypsin; details: EETI-II directly fused to the N-terminus of gene III; TRF
Procedure: Phage display technology facilitates isolation of binders to any given target from large combinatorial repertoires based on proteins and peptides that can be presented on the surface of filamentous phage^105. In order to isolate functional knottin-antibody fusions from the KnotBody libraries multiple rounds of phage display selections on trypsin (cognate antigen for the EETI-II donor) were carried out. Phage particles were prepared by rescuing KnotBody libraries using trypsin cleavable helper phage^102,106 Two rounds of phage display selections were performed on 10 μg/ml biotinylated trypsin immobilised on Streptavidin (for Round-1) or Neutravidin (for round-2) coated Maxisorp™ immunotubes (Thermo Scientific, Cat No. 444202). In both rounds of selection, phage libraries were pre-incubated with streptavidin coated paramagnetic beads (Thermo Fisher Scientific, Cat. No. 11205D). […] Polyclonal phage preparations from round-2 selection outputs were analysed for trypsin binding using a time resolved fluorescence (TRF) binding assay. In this assay, polyclonal phage binding to biotinylated trypsin immobilised on neutravidin (Thermo Fisher Scientific, Cat. No 31000) coated Maxisorp™ plates (Thermo Scientific, Cat. No. 437111) was detected using a mouse anti-M13 antibody (GE Healthcare, Cat. No. 27-9420-01) followed by europium conjugated anti-mouse antibody (Perkin Elmer, Cat. No. AD0124). […]

huASIC1a = target: T1, huASIC1a (Homo sapiens, UniProt P78348); assay: QPatch automated whole-cell patch-clamp on HEK293 cells stably expressing huASIC1a; format: cell-based; details: full blocking 300 nM PcTx1 (positive control) perfused at end of each KnotBody or control incubation, then pH 6.0; one value per preceding sample
T1 sequence (P78348 whole entry, looked up): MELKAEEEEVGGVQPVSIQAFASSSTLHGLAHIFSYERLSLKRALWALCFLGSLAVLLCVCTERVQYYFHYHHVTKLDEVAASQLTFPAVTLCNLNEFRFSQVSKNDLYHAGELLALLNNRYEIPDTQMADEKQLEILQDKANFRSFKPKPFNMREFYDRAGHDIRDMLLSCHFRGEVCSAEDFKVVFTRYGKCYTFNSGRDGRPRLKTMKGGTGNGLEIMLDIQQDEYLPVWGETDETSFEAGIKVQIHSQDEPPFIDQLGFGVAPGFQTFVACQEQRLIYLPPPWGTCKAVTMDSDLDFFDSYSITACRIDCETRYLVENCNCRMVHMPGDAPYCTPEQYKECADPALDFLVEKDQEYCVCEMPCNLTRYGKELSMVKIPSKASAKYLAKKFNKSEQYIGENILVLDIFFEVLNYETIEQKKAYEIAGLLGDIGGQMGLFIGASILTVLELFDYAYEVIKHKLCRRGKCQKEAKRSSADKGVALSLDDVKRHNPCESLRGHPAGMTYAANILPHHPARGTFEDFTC
Procedure: Knottin Kv 1.3 and ASIC1a blockers expressed in the KnotBody format (see examples 6 and 7) were tested for their ability to inhibit the function of the ion channel targets. The effect of these KnotBodies on cells expressing the human Kv 1.3 (huKv1.3) or human ASIC1a channels was assessed using QPatch automated whole-cell patch-clamp electrophysiology (Sophion).
To functionally assess the ASIC1a KnotBodies, HEK293 cells stably expressing huASIC1a (Sophion) were analysed using a QPatch electrophysiology assay in the presence or absence of the KnotBody fusions (using KB_A12 as a recipient and replacing the original EETI-II donor as shown in Table 8). The “parental” KB_A12 with the EETI-II donor was used as a negative control. Internal and external physiological solutions were freshly prepared prior to the assay. […]
At the end of each KnotBody incubation and subsequent ASIC1a current activation, a full blocking concentration (300 nM) of the ASIC1a knottin inhibitor PcTx1 (positive control) was perfused onto the cell recording and a final activating pH 6.0 external solution was applied. The percentage remaining signal between activating pH 6.0 baseline (i.e. pre-KnotBody) and post-KnotBody incubation was determined.

Substance	binding to trypsin of phage (trypsin)	% current remaining PcTx1 (300 nM) (huASIC1a)
EETI-II [reference compound]	no detectable binding to trypsin	
PcTx1: ASIC1a knottin inhibitor, positive control at 300 nM; SEQ ID NO: 20		2% and 1.9% and 2.7% and 3.8% and 3.6%
